Data as given in ChEMBL document CHEMBL4340502, “Anti-biofilm and anti-adherence properties of novel cyclic dipeptides against oral pathogens” (Bioorg Med Chem, 2019).
Activity calls are given as the source filed them.

Assays:
Actinomyces naeslundii [1] = test: Antibiofilm activity against Actinomyces naeslundii ATCC 49340 assessed as prevention of homogenous biofilm formation up to 96 ug/mL after 24 hrs by crystal violet staining based assay; type: functional, organism-based
Candida albicans [2] = test: Growth inhibition of Candida albicans ATCC 28366 up to 96 ug/ml measured after 24 hrs by microdilution method; type: organism-based; details: in vitro
Actinomyces naeslundii [3] = test: Antibiofilm activity against Actinomyces naeslundii ATCC 49340 assessed as reduction of biofilm formation at 48 ug/mL after 24 hrs by crystal violet staining based assay; type: functional, organism-based
Pseudomonas aeruginosa = test: Growth inhibition of Pseudomonas aeruginosa ATCC 10145 incubated for 24 hrs under aerobic condition by microdilution method; type: organism-based
Actinomyces naeslundii [4] = test: Antibiofilm activity against Actinomyces naeslundii ATCC 49340 assessed as inhibition of bacterial adhesion up to 96 ug/mL after 24 hrs by crystal violet staining based assay; type: functional, organism-based
Streptococcus mutans [5] = test: Antibiofilm activity against Streptococcus mutans ATCC 25175 assessed as inhibition of biofilm formation up to 96 ug/mL after 24 hrs by crystal violet staining-based assay; type: functional, organism-based
Streptococcus mutans [6] = test: Antiadherence activity in FITC-labelled Streptococcus mutans ATCC 25175 assessed as reduction in bacterial adhesion to hydroxylapatite up to 96 ug/mL after 1 hr fluorescence assay; type: functional, organism-based
Listeria monocytogenes = test: Growth inhibition of Listeria monocytogenes WSLC 1001 incubated for 24 hrs under aerobic condition by microdilution method; type: organism-based; details: in vitro
Fusobacterium nucleatum = test: Antibiofilm activity against Fusobacterium nucleatum ATCC 25586 assessed as inhibition of biofilm formation up to 96 ug/mL after 24 hrs by crystal violet staining based assay; type: functional, organism-based
Candida albicans [7] = test: Antiadherence activity against FITC-labelled Candida albicans ATCC 28366 assessed as reduction in bacterial adhesion to hydroxylapatite up to 96 ug/mL after 1 hr by fluorescence assay relative to control; type: functional
Staphylococcus aureus = test: Growth inhibition of Staphylococcus aureus ATCC 6538 incubated for 24 hrs under aerobic condition by microdilution method; type: organism-based; details: in vitro
Streptococcus mutans [8] = test: Antibiofilm activity against Streptococcus mutans ATCC 25175 assessed as inhibition of biofilm formation at 6 to 12 ug/mL after 24 hrs by crystal violet staining-based assay; type: functional, organism-based
Actinomyces naeslundii [9] = test: Antibiofilm activity against Actinomyces naeslundii ATCC 49340 assessed as reduction of biofilm formation by visual analysis; type: functional, organism-based
Candida albicans [10] = test: Antibiofilm activity against Candida albicans ATCC 28366 assessed as reduction of biofilm formation at 24 to 48 ug/mL after 24 hrs by crystal violet staining based assay; type: functional, organism-based
[11] = tested on: Limosilactobacillus fermentum; test: Antibiofilm activity against Lactobacillus fermentum LacB1 assessed as inhibition of biofilm formation up to 96 ug/mL after 24 hrs by crystal violet staining based assay; type: functional, organism-based
Candida albicans [12] = test: Antibiofilm activity against Candida albicans ATCC 28366 assessed as reduction of biofilm formation after 24 hrs by crystal violet staining based assay; type: functional, organism-based
Streptococcus mutans [13] = test: Inhibition of planktonic growth of Streptococcus mutans ATCC 25175 up to 96 ug/mL after 24 hrs relative to control; type: organism-based
Porphyromonas gingivalis = test: Antibiofilm activity against Porphyromonas gingivalis ATCC 33277 assessed as inhibition of biofilm formation up to 96 ug/mL after 24 hrs by crystal violet staining based assay; type: functional, organism-based
Streptococcus mutans [14] = test: Disruption of Streptococcus mutans ATCC 25175 pre-formed mature biofilm assessed as reduction in biofilm biomass at 96 ug/mL after 12 hrs by crystal violet staining based assay; type: functional, organism-based
Escherichia coli = test: Growth inhibition of Escherichia coli ATCC 15939 incubated for 24 hrs under aerobic condition by microdilution method; type: organism-based
Candida albicans [15] = test: Disruption of Candida albicans ATCC 28366 pre-formed mature biofilm assessed as reduction in biofilm biomass at 96 ug/mL after 12 hrs by crystal violet staining based assay; type: functional, organism-based

Row | Compound | inhibition (Streptococcus mutans [5]) | inhibition (Fusobacterium nucleatum) | growth inhibition (GI) (Streptococcus mutans [13]) | inhibition (Porphyromonas gingivalis) | other results
1 | O=C1N[C@H](Cc2ccc(OCc3ccccc3)cc2)C(=O)N[C@@H]1Cc1ccccc1 | Active | inactive | Non-Toxic | inactive | Activity (Actinomyces naeslundii [1]): Active; growth inhibition (GI) (Candida albicans [2]): Non-Toxic; inhibition (Actinomyces naeslundii [3]): Active; MIC (Pseudomonas aeruginosa): > 192 µg/mL; inhibition (Actinomyces naeslundii [4]): inactive; Activity (Streptococcus mutans [6]): Active; MIC (Listeria monocytogenes): > 192 µg/mL; Activity (Candida albicans [7]): Active; MIC (Staphylococcus aureus): > 192 µg/mL; Activity (Streptococcus mutans [8]): Active; inhibition (Actinomyces naeslundii [9]): Active; Activity (Candida albicans [10]): Active; inhibition [11]: inactive; Activity (Candida albicans [12]): Dose-dependent effect; Activity (Streptococcus mutans [14]): inactive; MIC (Escherichia coli): > 192 µg/mL; Activity (Candida albicans [15]): inactive
2 | O=C1N[C@H](Cc2ccc(OCc3ccccc3)cc2)C(=O)N[C@@H]1Cc1ccc(OCc2ccccc2)cc1 | Active | inactive | Non-Toxic | inactive | Activity (Actinomyces naeslundii [1]): Active; growth inhibition (GI) (Candida albicans [2]): Non-Toxic; inhibition (Actinomyces naeslundii [3]): Active; MIC (Pseudomonas aeruginosa): > 192 µg/mL; inhibition (Actinomyces naeslundii [4]): inactive; Activity (Streptococcus mutans [6]): Active; MIC (Listeria monocytogenes): > 192 µg/mL; Activity (Candida albicans [7]): Active; MIC (Staphylococcus aureus): > 192 µg/mL; Activity (Streptococcus mutans [8]): Active; inhibition (Actinomyces naeslundii [9]): Active; Activity (Candida albicans [10]): Active; inhibition [11]: inactive; Activity (Candida albicans [12]): Dose-dependent effect; Activity (Streptococcus mutans [14]): inactive; MIC (Escherichia coli): > 192 µg/mL; Activity (Candida albicans [15]): inactive
3 | O=C1N[C@H](Cc2ccccc2)C(=O)N[C@H]1Cc1ccccc1 | inactive | inactive | Non-Toxic | inactive | MIC (Pseudomonas aeruginosa): > 192 µg/mL; MIC (Listeria monocytogenes): > 192 µg/mL; MIC (Staphylococcus aureus): > 192 µg/mL; inhibition [11]: inactive; MIC (Escherichia coli): > 192 µg/mL
4 | O=C1N[C@H](Cc2ccccc2)C(=O)N[C@H]1Cc1ccc(OCc2ccccc2)cc1 | Active | inactive | Non-Toxic | inactive | Activity (Actinomyces naeslundii [1]): Active; growth inhibition (GI) (Candida albicans [2]): Non-Toxic; inhibition (Actinomyces naeslundii [3]): Active; MIC (Pseudomonas aeruginosa): > 192 µg/mL; inhibition (Actinomyces naeslundii [4]): inactive; Activity (Streptococcus mutans [6]): Active; MIC (Listeria monocytogenes): > 192 µg/mL; Activity (Candida albicans [7]): Active; MIC (Staphylococcus aureus): > 192 µg/mL; Activity (Streptococcus mutans [8]): Active; inhibition (Actinomyces naeslundii [9]): Active; Activity (Candida albicans [10]): Active; inhibition [11]: inactive; Activity (Candida albicans [12]): Dose-dependent effect; Activity (Streptococcus mutans [14]): inactive; MIC (Escherichia coli): > 192 µg/mL; Activity (Candida albicans [15]): inactive
5 | CC(C)C[C@@H]1NC(=O)[C@H](C)NC1=O | inactive | inactive | Non-Toxic | inactive | 
6 | CC(C)C[C@H]1NC(=O)[C@@H](CC(C)C)NC1=O | inactive | inactive | Non-Toxic | inactive | 
7 | CC(C)C[C@@H]1NC(=O)[C@H](COCc2ccccc2)NC1=O | inactive | inactive | Non-Toxic | inactive | 
8 | CC(C)[C@@H]1NC(=O)[C@@H](Cc2ccc(OCc3ccccc3)cc2)NC1=O | inactive | inactive | Non-Toxic | inactive | 
9 | O=C1N[C@@H](COCc2ccccc2)C(=O)N[C@H]1COCc1ccccc1 | inactive | inactive | Non-Toxic | inactive | 
10 | O=C1[C@H]2CCCN2C(=O)[C@H]2CCCN12 | inactive | inactive | Non-Toxic | inactive | 
11 | CC(C)C[C@H]1NC(=O)[C@H](C(C)C)NC1=O | inactive | inactive | Non-Toxic | inactive | 
12 | N=C(N)NCCC[C@@H]1NC(=O)[C@H](Cc2ccc(O)cc2)NC1=O | inactive | inactive | Non-Toxic | inactive | 
13 | C[C@H]1NC(=O)[C@@H](C)NC1=O | inactive | inactive | Non-Toxic | inactive | 
14 | CC(C)C[C@@H]1NC(=O)[C@H](C(C)C)NC1=O | inactive | inactive | Non-Toxic | inactive | 
15 | C[C@@H]1NC(=O)[C@H](Cc2ccc(OCc3ccccc3)cc2)NC1=O | inactive | inactive | Non-Toxic | inactive | 
16 | CC(C)C[C@@H]1NC(=O)[C@H](Cc2ccc([N+](=O)[O-])cc2)NC1=O | inactive | inactive | Non-Toxic | inactive | 
17 | CC(C)C[C@@H]1NC(=O)[C@H](CCCN(C(=N)N)[N+](=O)[O-])NC1=O | inactive | inactive | Non-Toxic | inactive | 
18 | O=C1[C@@H]2CCCN2C(=O)[C@@H]2CCCN12 | inactive | inactive | Non-Toxic | inactive | 
19 | C[C@@H]1NC(=O)[C@H](CCC(N)=O)NC1=O | inactive | inactive | Non-Toxic | inactive | 
20 | O=C1N[C@H](Cc2ccccc2)C(=O)N[C@@H]1Cc1ccccc1 | inactive | inactive | Non-Toxic | inactive | MIC (Pseudomonas aeruginosa): > 192 µg/mL; MIC (Listeria monocytogenes): > 192 µg/mL; MIC (Staphylococcus aureus): > 192 µg/mL; inhibition [11]: inactive; MIC (Escherichia coli): > 192 µg/mL
21 | O=C1N[C@@H](Cc2ccccc2)C(=O)N[C@H]1COCc1ccccc1 | inactive | inactive | Non-Toxic | inactive | 
22 | O=C1[C@@H]2CSCN2C(=O)[C@@H]2CSCN12 | inactive | inactive | Non-Toxic | inactive | 
23 | CCC(C)[C@@H]1NC(=O)[C@H](C(C)CC)NC1=O (stereo not given in full) | inactive | inactive | Non-Toxic | inactive | 
24 | NCCCC[C@@H]1NC(=O)[C@H](Cc2ccccc2)NC1=O | inactive | inactive | Non-Toxic | inactive | 
25 | O=C1CNC(=O)[C@H](CCC(=O)OCc2ccccc2)N1 | inactive | inactive | Non-Toxic | inactive | 
26 | O=C1N[C@@H](Cc2ccccc2)C(=O)N[C@H]1Cc1ccccc1 | inactive | inactive | Non-Toxic | inactive | MIC (Pseudomonas aeruginosa): > 192 µg/mL; MIC (Listeria monocytogenes): > 192 µg/mL; MIC (Staphylococcus aureus): > 192 µg/mL; inhibition [11]: inactive; MIC (Escherichia coli): > 192 µg/mL
